Source: ChEMBL document CHEMBL4477256, “Newly synthesized bis-benzimidazole compound 8 induces apoptosis, autophagy and reactive oxygen species generation in HeLa cells” (Bioorg Med Chem Lett, 2016)
Active and inactive are the calls of the source. No cut-off for these calls is given here.

Tests used:
Type in all cases: functional, cell-based
[1] = test system: HeLa; assay: Cytotoxicity against human HeLa cells assessed as inhibition of cell growth after 12 to 48 hrs by MTT assay
[2] = test system: HeLa; assay: Cytotoxicity against human HeLa cells assessed as inhibition of cell growth at 5 to 20 uM by MTT assay; settings: TDE = time-dependent effect
[3] = test system: HeLa; assay: Induction of apoptosis in human HeLa cells assessed as formation of apoptotic bodies at 10 uM after 24 hrs by phase contrast microscopic analysis
[4] = test system: HeLa; assay: Induction of apoptosis in human HeLa cells assessed as chromatin condensation at 10 uM after 24 hrs by AO staining-based microscopic analysis
[5] = test system: HeLa; assay: Induction of apoptosis in human HeLa cells assessed as nuclear fragmentation at 10 uM after 24 hrs by AO staining-based microscopic analysis
[6] = test system: HeLa; assay: Induction of apoptosis in human HeLa cells assessed as increase in subG0/G1 ratio after 24 hrs by PI staining-based flow cytometry
[7] = test system: HeLa; assay: Induction of apoptosis in human HeLa cells assessed as increase in subG0/G1 ratio at 10 uM after 24 hrs in presence of ZVAD by PI staining-based flow cytometry
[8] = test system: HeLa; assay: Induction of apoptosis in human HeLa cells assessed as reduction in mitochondrial membrane potential at 5 to 20 uM after 24 hrs by Rhodamine123 staining-based flow cytometry
[9] = test system: HeLa; assay: Upregulation of Fas in human HeLa cells at 5 to 20 uM after 24 hrs by Western blot analysis
[10] = test system: HeLa; assay: Upregulation of FasL in human HeLa cells at 5 to 20 uM after 24 hrs by Western blot analysis
[11] = test system: HeLa; assay: Upregulation of FADD in human HeLa cells at 5 to 20 uM after 24 hrs by Western blot analysis
[12] = test system: HeLa; assay: Upregulation of caspase-8 in human HeLa cells at 5 to 20 uM after 24 hrs by Western blot analysis
[13] = test system: HeLa; assay: Upregulation of caspase-3 in human HeLa cells at 5 to 20 uM after 24 hrs by Western blot analysis
[14] = test system: HeLa; assay: Induction of apoptosis in human HeLa cells assessed as increase in Bax/Bcl-2 ratio at 5 to 20 uM after 24 hrs by Western blot analysis
[15] = test system: HeLa; assay: Induction of apoptosis in human HeLa cells assessed as increase in cytochrome c release from mitochondria to cytosol at 5 to 20 uM after 24 hrs by Western blot analysis
[16] = test system: HeLa; assay: Induction of autophagy in human HeLa cells after 24 hrs by MDC staining-based flow cytometry
[17] = test system: HeLa; assay: Induction of autophagy in human HeLa cells at 10 uM after 24 hrs by MDC staining-based fluorescence microscopic analysis
[18] = test system: HeLa; assay: Induction of autophagy in human HeLa cells after 24 hrs in presence of 3MA by MDC staining-based flow cytometry
[19] = test system: HeLa; assay: Upregulation of beclin 1 in human HeLa cells at 5 to 20 uM after 24 hrs by Western blot analysis
[20] = test system: HeLa; assay: Induction of autophagy in human HeLa cells assessed as conversion of LC3 1 to LC3 2 at 5 to 20 uM after 24 hrs by Western blot analysis
[21] = test system: HeLa; assay: Induction of autophagy in human HeLa cells assessed as conversion of LC3 1 to LC3 2 at 5 to 20 uM after 24 hrs in presence of 3MA by Western blot analysis
[22] = test system: HeLa; assay: Upregulation of beclin 1 in human HeLa cells at 5 to 20 uM after 24 hrs in presence of 3MA by Western blot analysis
[23] = test system: HeLa; assay: Cytotoxicity against human HeLa cells assessed as inhibition of cell growth after 24 hrs in presence of 3MA by MTT assay
[24] = test system: HeLa; assay: Induction of ROS generation in human HeLa cells at up to 5 uM after 24 hrs by H2DCF-DA staining-based flow cytometry
[25] = test system: HeLa; assay: Induction of ROS generation in human HeLa cells at 10 to 20 uM after 24 hrs by H2DCF-DA staining-based flow cytometry
[26] = test system: HeLa; assay: Induction of ROS generation in human HeLa cells at 10 uM in presence of NAC by H2DCF-DA staining-based flow cytometry
[27] = test system: HeLa; assay: Induction of autophagy in human HeLa cells in presence of NAC by MDC staining-based flow cytometry
[28] = test system: HeLa; assay: Induction of apoptosis in human HeLa cells assessed as increase in subG0/G1 ratio in presence of NAC by PI staining-based flow cytometry
[29] = test system: HeLa; assay: Induction ROS generation in human HeLa cells in presence of ZVAD by flow cytometry
[30] = test system: HeLa; assay: Induction ROS generation in human HeLa cells in presence of 3MA by flow cytometry
[31] = test system: HeLa; assay: Induction of apoptosis in human HeLa cells assessed as increase in subG0/G1 ratio preincubated with 3MA for 1 hr followed by compound treatment at 10 uM for 24 hrs by PI staining-based flow cytometry
[32] = test system: HeLa; assay: Induction of autophagy in human HeLa cells preincubated at 10 uM in presence of ZVAD for 24 hrs by MDC staining-based flow cytometry

With COc1ccc(-c2nc3cc(Oc4ccc5[nH]c(-c6ccc(OC)cc6)nc5c4)ccc3[nH]2)cc1 the Activity [1] was “Dose-dependent effect”, the inhibition [2] was “Tde” and the Activity [3] was “Active”. For the same compound, the Activity [4] was “Active”, the Activity [5] was “Active” and the Activity [6] was “Dose-dependent effect”. The Activity [7] was “inactive”, the Activity [8] was “Active” and the Activity [9] was “Active”. The Activity [10] was “Active”, the Activity [11] was “Active” and the Activity [12] was “Active”. For the same compound, the Activity [13] was “Active”, the Activity [14] was “Active” and the Activity [15] was “Active”. The Activity [16] was “Dose-dependent effect”, the Activity [17] was “Active” and the Activity [18] was “inactive”. For the same compound, the Activity [19] was “Active”, the Activity [20] was “Active” and the Activity [21] was “inactive”. For the same compound, the Activity [22] was “inactive”, the Activity [23] was “inactive” and the Activity [24] was “Active”. The Activity [25] was “inactive”, the Activity [26] was “inactive” and the Activity [27] was “inactive”. The Activity [28] was “inactive”, the Activity [29] was “inactive” and the Activity [30] was “inactive”. For the same compound, the Activity [31] was “inactive” and the Activity [32] was “Active”.
